Reference: ChEMBL document CHEMBL3792365, “Dioxol and dihydrodioxin analogs of 2- and 3-phenylacetonitriles as potent anti-cancer agents with nanomolar activity against a variety of human cancer cells” (2016)

Experiments:
Format in all cases: functional
[1] = test system: ACHN; assay: Growth inhibition of human ACHN cells at 10 uM after 48 hrs by sulforhodamine B assay; conditions: values are per cent of control
[2] = Growth inhibition of human OVCAR3 cells at 10 uM after 48 hrs by sulforhodamine B assay; conditions: OVCAR-3, 48 h, values are per cent of control
[3] = test system: SK-MEL-5; assay: Growth inhibition of human SK-MEL-5 cells at 10 uM after 48 hrs by sulforhodamine B assay; conditions: SK-MEL-5, 48 h, values are per cent of control
[4] = Growth inhibition of human MOLT4 cells at 10 uM after 48 hrs by sulforhodamine B assay; conditions: MOLT-4, 48 h, values are per cent of control
[5] = Growth inhibition of human HCT15 cells at 10 uM after 48 hrs by sulforhodamine B assay; conditions: HCT-15, 48 h, values are per cent of control
[6] = test system: CCRF-CEM; assay: Growth inhibition of human CCRF-CEM cells at 10 uM after 48 hrs by sulforhodamine B assay; conditions: values are per cent of control
[7] = Growth inhibition of human HL-60(TB) cells at 10 uM after 48 hrs by sulforhodamine B assay; conditions: HL-60, 48 h, values are per cent of control
[8] = Growth inhibition of human RPMI8226 cells at 10 uM after 48 hrs by sulforhodamine B assay; conditions: RPMI-8226, 48 h, values are per cent of control
[9] = test system: SR; assay: Growth inhibition of human SR cells at 10 uM after 48 hrs by sulforhodamine B assay; conditions: values are per cent of control
[10] = test system: MCF7; assay: Growth inhibition of human MCF7 cells at 10 uM after 48 hrs by sulforhodamine B assay; conditions: MCF7, 48 h, values are per cent of control
[11] = Growth inhibition of human UACC257 cells at 10 uM after 48 hrs by sulforhodamine B assay; conditions: UACC-257, 48 h, values are per cent of control
[12] = Growth inhibition of human RXF393 cells at 10 uM after 48 hrs by sulforhodamine B assay; conditions: RXF 393, 48 h, values are per cent of control
[13] = test system: 786-0; assay: Growth inhibition of human 786-0 cells at 10 uM after 48 hrs by sulforhodamine B assay; conditions: 786-0, 48 h, values are per cent of control
[14] = Growth inhibition of human OVCAR8 cells at 10 uM after 48 hrs by sulforhodamine B assay; conditions: OVCAR-8, 48 h, values are per cent of control
[15] = Growth inhibition of human NCI-ADR-RES cells at 10 uM after 48 hrs by sulforhodamine B assay; conditions: values are per cent of control
[16] = Growth inhibition of human PC3 cells at 10 uM after 48 hrs by sulforhodamine B assay; conditions: PC-3, 48 h, values are per cent of control
[17] = Growth inhibition of human SKOV3 cells at 10 uM after 48 hrs by sulforhodamine B assay; conditions: SK-OV-3, 48 h, values are per cent of control
[18] = test system: Malme-3M; assay: Growth inhibition of human MALME-3M cells at 10 uM after 48 hrs by sulforhodamine B assay; conditions: values are per cent of control
[19] = Growth inhibition of human HOP92 cells at 10 uM after 48 hrs by sulforhodamine B assay; conditions: HOP-92, 48 h, values are per cent of control

N#C/C(=C\c1ccc(Cl)c(Cl)c1)c1ccc2c(c1)OCO2
growth, % of control at 10 µM [1]: 49.1%
growth, % of control at 10 µM [2]: 97.7%
growth, % of control at 10 µM [3]: 98.4%
growth, % of control at 10 µM [4]: 72.2%
growth, % of control at 10 µM [5]: 88.7%
growth, % of control at 10 µM [6]: 91.9%
growth, % of control at 10 µM [7]: 83.1%
growth, % of control at 10 µM [8]: 80.1%
growth, % of control at 10 µM [9]: 77.7%
growth, % of control at 10 µM [10]: 79.9%
growth, % of control at 10 µM [11]: 86.3%
growth, % of control at 10 µM [12]: 94.4%
growth, % of control at 10 µM [13]: 72.4%
growth, % of control at 10 µM [14]: 70.9%
growth, % of control at 10 µM [15]: 79.3%
growth, % of control at 10 µM [16]: 91.5%
growth, % of control at 10 µM [17]: 70.6%

N#C/C(=C\c1c(Cl)cccc1Cl)c1ccc2c(c1)OCO2
growth, % of control at 10 µM [1]: 103%
growth, % of control at 10 µM [2]: 97.7%
growth, % of control at 10 µM [3]: 93.5%
growth, % of control at 10 µM [4]: 61.2%
growth, % of control at 10 µM [5]: 92.6%
growth, % of control at 10 µM [6]: 86.7%
growth, % of control at 10 µM [7]: 75%
growth, % of control at 10 µM [8]: 84.4%
growth, % of control at 10 µM [9]: 77%
growth, % of control at 10 µM [10]: 93.7%
growth, % of control at 10 µM [11]: 99.8%
growth, % of control at 10 µM [12]: 96.1%
growth, % of control at 10 µM [18]: 56.1%
growth, % of control at 10 µM [13]: 95.6%
growth, % of control at 10 µM [14]: 92.6%
growth, % of control at 10 µM [15]: 103%
growth, % of control at 10 µM [16]: 94.3%
growth, % of control at 10 µM [17]: 97.9%

N#C/C(=C\c1ccc2c(c1)OCO2)c1ccc2c(c1)OCO2
growth, % of control at 10 µM [19]: 94.2%
growth, % of control at 10 µM [1]: 96.2%
growth, % of control at 10 µM [2]: 71.7%
growth, % of control at 10 µM [3]: 75.9%
growth, % of control at 10 µM [4]: 67.7%
growth, % of control at 10 µM [5]: 43.9%
growth, % of control at 10 µM [6]: 73.2%
growth, % of control at 10 µM [7]: 57.9%
growth, % of control at 10 µM [8]: 75.2%
growth, % of control at 10 µM [9]: 26.2%
growth, % of control at 10 µM [10]: 23.9%
growth, % of control at 10 µM [11]: 80.2%
growth, % of control at 10 µM [12]: 94.7%
growth, % of control at 10 µM [18]: 69%
growth, % of control at 10 µM [13]: 90%
growth, % of control at 10 µM [14]: 83.8%
growth, % of control at 10 µM [15]: 41%
growth, % of control at 10 µM [16]: 70.2%
growth, % of control at 10 µM [17]: 85.5%

N#C/C(=C\c1cccnc1Cl)c1ccc2c(c1)OCO2
growth, % of control at 10 µM [1]: 109%
growth, % of control at 10 µM [2]: 115%
growth, % of control at 10 µM [3]: 92.2%
growth, % of control at 10 µM [5]: 98.8%
growth, % of control at 10 µM [6]: 93.7%
growth, % of control at 10 µM [7]: 83.8%
growth, % of control at 10 µM [8]: 89.3%
growth, % of control at 10 µM [9]: 92.8%
growth, % of control at 10 µM [10]: 112%
growth, % of control at 10 µM [11]: 112%
growth, % of control at 10 µM [12]: 98.3%
growth, % of control at 10 µM [18]: 107%
growth, % of control at 10 µM [13]: 94%
growth, % of control at 10 µM [14]: 56.2%
growth, % of control at 10 µM [15]: 101%
growth, % of control at 10 µM [16]: 101%
growth, % of control at 10 µM [17]: 103%

COc1cc(/C=C(\C#N)c2ccc3c(c2)OCO3)cc(OC)c1
growth, % of control at 10 µM [1]: 108%
growth, % of control at 10 µM [2]: 103%
growth, % of control at 10 µM [3]: 97.3%
growth, % of control at 10 µM [4]: 67.2%
growth, % of control at 10 µM [5]: 102%
growth, % of control at 10 µM [6]: 83.4%
growth, % of control at 10 µM [7]: 64.5%
growth, % of control at 10 µM [8]: 89.4%
growth, % of control at 10 µM [9]: 82%
growth, % of control at 10 µM [10]: 85.5%
growth, % of control at 10 µM [11]: 97%
growth, % of control at 10 µM [12]: 106%
growth, % of control at 10 µM [18]: 95.7%
growth, % of control at 10 µM [13]: 94.5%
growth, % of control at 10 µM [14]: 92.3%
growth, % of control at 10 µM [15]: 99.7%
growth, % of control at 10 µM [16]: 97.3%
growth, % of control at 10 µM [17]: 101%

N#C/C(=C\c1ccc(Cl)cc1Cl)c1ccc2c(c1)OCO2
growth, % of control at 10 µM [19]: 99.9%
growth, % of control at 10 µM [1]: 102%
growth, % of control at 10 µM [2]: 98.4%
growth, % of control at 10 µM [3]: 98.9%
growth, % of control at 10 µM [4]: 79.2%
growth, % of control at 10 µM [5]: 82.9%
growth, % of control at 10 µM [6]: 93.3%
growth, % of control at 10 µM [7]: 87.3%
growth, % of control at 10 µM [8]: 84.6%
growth, % of control at 10 µM [9]: 68.7%
growth, % of control at 10 µM [10]: 110%
growth, % of control at 10 µM [11]: 93.8%
growth, % of control at 10 µM [12]: 101%
growth, % of control at 10 µM [18]: 76.4%
growth, % of control at 10 µM [13]: 91.4%
growth, % of control at 10 µM [14]: 104%
growth, % of control at 10 µM [15]: 100%
growth, % of control at 10 µM [16]: 93.4%
growth, % of control at 10 µM [17]: 97.3%
